Assay results taken from paper PMC3969223, “Characterization of WZ4003 and HTH-01-015 as selective inhibitors of the LKB1-tumour-suppressor-activated NUAK kinases” (Biochemical Journal, 2013).

Tests used:
[1] = test system: NUAK1+/+ MEFs; assay: Wound-healing (migration) assay; type: cell-based, mouse; details: 10 μM
Protocol: MEFs were split and an approximately equal number of cells were loaded into the left and right chambers of the IBIDI Self-Insertion Inserts (catalogue number 80209). Each insert was placed in one well of a 12-well plate and the cells were seeded with or without treatment with the inhibitors. For the comparison of the migration properties of different MEFs on the same video, a single insert was used and an equal number of MEFs were counted and loaded on either chamber of the same insert. To study the effect of inhibitors on cell migration, wound-healing assays on MEFs were also carried out on separate inserts with or without treatment with a 10 μM concentration of WZ4003 or HTH-01-015. Inhibitors were added to the cells 1 h before the start of the migration assay. The experiments were carried out in triplicate. After overnight incubation at 37°C and 5% CO2, the insert was removed and the migration of cells into the 500 μm gap between the chambers was observed. The wound-gap healing properties of the cells were observed over a period of 15–20 h under a Nikon Eclipse Ti microscope with images taken every 2 min by a Photometrics cascade II CCD (charge-coupled device) camera using Nikon NIS Elements software.

[2] = test system: MEFs; assay: Cell proliferation assay (CellTiter 96 AQueous); type: cell-based, mouse; details: 10 μM, 5 days; same extent as NUAK1-knockout
Protocol: Cell proliferation assays were carried out colorimetrically in 96-well plates using the CellTiter 96® AQueous Non-Radioactive Cell Proliferation Assay kit (Promega) following the manufacturer's protocol. Initially, 2000 cells per well were seeded for U2OS cells and 3000 cells per well were seeded for MEFs. The proliferation assays were carried out over 5 days in the presence or absence of 10 μM HTH-01-015 or WZ4003.

[3] = test system: MYPT1 phosphorylation; assay: MYPT1 phosphorylation on detachment, U2OS; type: cell-based; details: 10 μM, 16 h
Protocol: (§1) Figure 7 NUAK1 inhibition suppresses cell proliferation (A) U2OS cells were incubated with or without 10 μM WZ4003 or 10 μM HTH-01-015 and a cell proliferation assay was carried out over 5 days in triplicate using the CellTiter 96® AQueous Non-Radioactive Cell Proliferation Assay kit (Promega) (as described in the Materials and methods section). U2OS cells in which NUAK1 has been knocked-down using two different shRNA hairpins were used in parallel as controls. The efficiency of the knock down of each shRNA is shown in top panel. SCR, control scrambled shRNA hairpin; shNUAK1 (1), first NUAK1 shRNA hairpin; shNUAK1 (2), second NUAK1 shRNA hairpin. (B) U2OS cells were treated with (+) or without (−) 10 μM WZ4003 or 10 μM HTH-01-015. After 16 h cell media was removed and cells were treated with EDTA-PBS-based cell dissociation buffer supplemented with 10 μM WZ4003, 10 μM HTH-01–015 or DMSO for 20 min. Cell detachment was induced with gentle tapping of the plates followed by gentle centrifugation at 70 g for 3 min. Cells were lysed immediately after removal of the media and immunoblotted for the detection of the indicated antibodies. (C and D) As above, except NUAK1^+/+ and NUAK1^−/− MEFs were used. Similar results were obtained in three separate experiments.

[4] = test system: MYPT1 phosphorylation; assay: MYPT1 phosphorylation on detachment, MEFs; type: cell-based, mouse; details: 10 μM, 16 h
Protocol: as §1

[5] = target: FGF-R1 (Homo sapiens, UniProt P11362); assay: Kinase profiling; type: biochemical; details: 0.1 or 1 μM inhibitor; mean of triplicate
FGF-R1, sequence (P11362 22-822): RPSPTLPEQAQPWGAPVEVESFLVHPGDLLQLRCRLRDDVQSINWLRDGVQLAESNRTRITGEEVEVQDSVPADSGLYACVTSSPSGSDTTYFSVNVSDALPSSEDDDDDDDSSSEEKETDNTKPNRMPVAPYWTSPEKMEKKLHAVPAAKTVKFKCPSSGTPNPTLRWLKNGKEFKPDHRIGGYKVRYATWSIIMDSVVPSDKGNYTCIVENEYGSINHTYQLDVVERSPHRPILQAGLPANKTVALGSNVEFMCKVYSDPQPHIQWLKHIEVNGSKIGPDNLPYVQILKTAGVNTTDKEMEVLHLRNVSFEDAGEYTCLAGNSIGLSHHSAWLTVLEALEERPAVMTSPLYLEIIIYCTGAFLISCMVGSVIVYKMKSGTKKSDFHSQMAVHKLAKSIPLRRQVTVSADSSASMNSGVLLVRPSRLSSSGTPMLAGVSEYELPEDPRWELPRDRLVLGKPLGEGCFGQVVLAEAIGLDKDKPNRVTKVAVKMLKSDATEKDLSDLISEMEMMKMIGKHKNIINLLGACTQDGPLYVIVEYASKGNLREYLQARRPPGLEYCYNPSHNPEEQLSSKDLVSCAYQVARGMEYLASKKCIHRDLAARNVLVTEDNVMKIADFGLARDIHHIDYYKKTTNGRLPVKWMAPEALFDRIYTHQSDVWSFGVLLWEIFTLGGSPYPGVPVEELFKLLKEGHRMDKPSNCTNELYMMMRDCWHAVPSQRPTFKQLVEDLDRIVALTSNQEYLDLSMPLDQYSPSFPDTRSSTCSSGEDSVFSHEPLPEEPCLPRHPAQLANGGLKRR
Protocol: (§2) Kinase inhibitor specificity profiling assays were carried out at The International Centre for Protein Kinase Profiling (http://www.kinase-screen.mrc.ac.uk/) against a panel of 140 protein kinases as described previously. Results are presented as a percentage of kinase activity in DMSO control reactions. Protein kinases were assayed in vitro with 0.1 or 1 μM of the inhibitors and the results are presented as an average of triplicate reactions±S.D. or in the form of comparative histograms.

[6] = target: IGF-1R (Homo sapiens, UniProt P08069); assay: Kinase profiling; type: biochemical; details: 0.1 or 1 μM inhibitor; mean of triplicate
IGF-1R, sequence (P08069 31-1367): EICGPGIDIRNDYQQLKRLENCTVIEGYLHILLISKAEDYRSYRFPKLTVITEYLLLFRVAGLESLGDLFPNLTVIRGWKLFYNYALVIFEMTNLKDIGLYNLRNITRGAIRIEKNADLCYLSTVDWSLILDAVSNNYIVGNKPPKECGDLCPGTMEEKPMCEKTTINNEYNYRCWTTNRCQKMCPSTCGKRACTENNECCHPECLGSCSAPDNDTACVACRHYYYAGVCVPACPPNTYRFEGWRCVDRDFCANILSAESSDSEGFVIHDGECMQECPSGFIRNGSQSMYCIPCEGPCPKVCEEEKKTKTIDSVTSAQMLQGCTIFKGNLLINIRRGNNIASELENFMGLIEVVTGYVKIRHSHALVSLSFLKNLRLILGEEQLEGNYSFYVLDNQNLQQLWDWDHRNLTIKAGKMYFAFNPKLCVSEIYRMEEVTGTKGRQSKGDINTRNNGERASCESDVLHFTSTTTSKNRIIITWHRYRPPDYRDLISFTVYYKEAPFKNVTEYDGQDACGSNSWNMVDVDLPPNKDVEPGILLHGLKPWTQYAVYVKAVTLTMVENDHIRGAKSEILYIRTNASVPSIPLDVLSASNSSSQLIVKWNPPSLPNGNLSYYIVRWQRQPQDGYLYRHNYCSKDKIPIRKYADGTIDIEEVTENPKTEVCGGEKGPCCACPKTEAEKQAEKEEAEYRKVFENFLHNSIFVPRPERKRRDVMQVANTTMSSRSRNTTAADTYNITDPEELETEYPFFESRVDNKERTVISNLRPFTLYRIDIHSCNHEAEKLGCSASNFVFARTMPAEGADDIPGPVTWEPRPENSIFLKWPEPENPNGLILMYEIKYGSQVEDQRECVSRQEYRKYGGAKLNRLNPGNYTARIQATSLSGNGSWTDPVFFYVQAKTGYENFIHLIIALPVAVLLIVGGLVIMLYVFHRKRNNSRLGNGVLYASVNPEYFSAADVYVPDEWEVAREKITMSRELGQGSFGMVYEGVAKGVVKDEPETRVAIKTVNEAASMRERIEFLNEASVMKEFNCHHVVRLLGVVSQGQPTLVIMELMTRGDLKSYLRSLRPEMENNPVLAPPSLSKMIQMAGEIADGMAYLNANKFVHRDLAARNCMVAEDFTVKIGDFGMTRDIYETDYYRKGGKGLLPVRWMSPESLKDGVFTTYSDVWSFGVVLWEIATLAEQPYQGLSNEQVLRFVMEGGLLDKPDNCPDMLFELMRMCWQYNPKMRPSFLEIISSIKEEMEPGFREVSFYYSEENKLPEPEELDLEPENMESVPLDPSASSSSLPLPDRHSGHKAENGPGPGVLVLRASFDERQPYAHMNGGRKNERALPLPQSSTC
Protocol: as §2

[7] = target: IKKε (Homo sapiens, UniProt Q14164); assay: Kinase profiling; type: biochemical; details: 0.1 or 1 μM inhibitor; mean of triplicate
IKKε, sequence (Q14164 whole entry): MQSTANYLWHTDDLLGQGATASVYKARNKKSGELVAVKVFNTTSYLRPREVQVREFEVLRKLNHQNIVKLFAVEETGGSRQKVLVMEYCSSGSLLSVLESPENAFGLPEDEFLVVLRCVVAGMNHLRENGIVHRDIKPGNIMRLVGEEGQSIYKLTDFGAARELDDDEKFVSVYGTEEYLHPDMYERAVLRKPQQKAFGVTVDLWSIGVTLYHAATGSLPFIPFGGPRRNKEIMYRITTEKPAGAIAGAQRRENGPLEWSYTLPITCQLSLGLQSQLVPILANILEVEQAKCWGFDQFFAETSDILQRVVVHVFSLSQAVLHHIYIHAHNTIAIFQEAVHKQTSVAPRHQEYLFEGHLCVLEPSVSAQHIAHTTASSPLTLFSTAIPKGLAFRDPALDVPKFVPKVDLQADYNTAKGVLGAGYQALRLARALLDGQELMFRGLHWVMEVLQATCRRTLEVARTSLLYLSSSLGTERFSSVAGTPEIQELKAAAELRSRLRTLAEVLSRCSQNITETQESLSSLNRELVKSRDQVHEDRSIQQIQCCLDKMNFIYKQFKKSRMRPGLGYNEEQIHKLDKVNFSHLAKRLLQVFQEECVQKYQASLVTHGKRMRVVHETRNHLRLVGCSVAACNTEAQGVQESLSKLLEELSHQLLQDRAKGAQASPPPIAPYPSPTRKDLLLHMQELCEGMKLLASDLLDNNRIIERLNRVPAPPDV
Protocol: as §2

[8] = target: MINK1 (Homo sapiens, UniProt Q8N4C8); assay: Kinase profiling; type: biochemical; details: 0.1 or 1 μM inhibitor; mean of triplicate
Protocol: as §2

[9] = target: MKK6 (Homo sapiens, UniProt P52564); assay: Kinase profiling; type: biochemical; details: 0.1 or 1 μM inhibitor; mean of triplicate
Protocol: as §2

[10] = target: T1, NUAK1 (Homo sapiens, UniProt O60285); assay: Kinase profiling; type: biochemical; details: 0.1 or 1 μM inhibitor; mean of triplicate
T1 construct: made in house; host or cells: HEK-293 cells, transient transfection of pEBG2T construct
T1 sequence (O60285 1-661): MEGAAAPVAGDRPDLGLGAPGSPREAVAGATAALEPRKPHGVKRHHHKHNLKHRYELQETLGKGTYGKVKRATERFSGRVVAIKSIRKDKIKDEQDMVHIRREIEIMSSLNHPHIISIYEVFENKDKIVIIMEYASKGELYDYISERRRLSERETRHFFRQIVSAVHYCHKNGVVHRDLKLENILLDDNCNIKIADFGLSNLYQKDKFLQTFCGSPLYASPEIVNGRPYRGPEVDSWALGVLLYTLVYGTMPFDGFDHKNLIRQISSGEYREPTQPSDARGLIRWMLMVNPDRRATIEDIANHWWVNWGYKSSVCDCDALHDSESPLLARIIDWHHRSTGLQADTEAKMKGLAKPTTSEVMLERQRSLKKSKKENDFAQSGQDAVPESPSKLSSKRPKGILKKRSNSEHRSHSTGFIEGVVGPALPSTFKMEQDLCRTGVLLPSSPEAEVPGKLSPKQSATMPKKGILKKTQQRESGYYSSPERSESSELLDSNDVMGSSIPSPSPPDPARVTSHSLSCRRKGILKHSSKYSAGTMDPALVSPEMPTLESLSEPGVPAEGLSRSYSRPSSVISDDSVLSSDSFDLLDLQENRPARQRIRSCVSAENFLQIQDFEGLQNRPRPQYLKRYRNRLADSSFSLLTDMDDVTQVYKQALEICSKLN
Protocol: as §2

[11] = target: PHK (Homo sapiens, UniProt Q16816); assay: Kinase profiling; type: biochemical; details: 0.1 or 1 μM inhibitor; mean of triplicate
Protocol: as §2

[12] = target: PKBα (Homo sapiens, UniProt P31749); assay: Kinase profiling; type: biochemical; details: 0.1 or 1 μM inhibitor; mean of triplicate
Protocol: as §2

[13] = target: PKCγ (Homo sapiens, UniProt P05129); assay: Kinase profiling; type: biochemical; details: 0.1 or 1 μM inhibitor; mean of triplicate
Protocol: as §2

[14] = target: VEG-FR (Homo sapiens, UniProt P17948); assay: Kinase profiling; type: biochemical; details: 0.1 or 1 μM inhibitor; mean of triplicate
Protocol: as §2

[15] = target: MARK1 (Homo sapiens, UniProt Q9P0L2); assay: Kinase profiling; type: biochemical
MARK1, sequence (Q9P0L2 whole entry): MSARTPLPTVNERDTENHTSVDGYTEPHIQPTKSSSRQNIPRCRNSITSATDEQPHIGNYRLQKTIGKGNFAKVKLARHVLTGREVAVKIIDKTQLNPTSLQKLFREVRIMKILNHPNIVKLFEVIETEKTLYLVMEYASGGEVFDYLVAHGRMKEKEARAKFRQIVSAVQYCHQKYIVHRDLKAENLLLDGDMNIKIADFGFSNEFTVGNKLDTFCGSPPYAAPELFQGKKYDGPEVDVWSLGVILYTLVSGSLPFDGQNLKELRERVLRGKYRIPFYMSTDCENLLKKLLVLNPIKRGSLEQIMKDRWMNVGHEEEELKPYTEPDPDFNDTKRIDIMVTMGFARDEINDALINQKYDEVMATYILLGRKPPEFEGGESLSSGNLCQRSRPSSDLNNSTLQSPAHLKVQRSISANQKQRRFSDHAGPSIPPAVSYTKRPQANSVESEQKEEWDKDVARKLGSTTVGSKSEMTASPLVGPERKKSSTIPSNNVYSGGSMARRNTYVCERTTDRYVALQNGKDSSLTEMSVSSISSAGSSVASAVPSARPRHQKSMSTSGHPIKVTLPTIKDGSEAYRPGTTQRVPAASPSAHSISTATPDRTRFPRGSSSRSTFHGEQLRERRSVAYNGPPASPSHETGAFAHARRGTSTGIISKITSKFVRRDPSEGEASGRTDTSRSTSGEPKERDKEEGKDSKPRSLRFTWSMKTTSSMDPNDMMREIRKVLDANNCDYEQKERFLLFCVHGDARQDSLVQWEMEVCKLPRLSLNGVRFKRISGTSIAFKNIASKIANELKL
Protocol: as §2

[16] = target: MARK3 (Homo sapiens, UniProt P27448); assay: Kinase profiling; type: biochemical
MARK3, sequence (P27448 whole entry): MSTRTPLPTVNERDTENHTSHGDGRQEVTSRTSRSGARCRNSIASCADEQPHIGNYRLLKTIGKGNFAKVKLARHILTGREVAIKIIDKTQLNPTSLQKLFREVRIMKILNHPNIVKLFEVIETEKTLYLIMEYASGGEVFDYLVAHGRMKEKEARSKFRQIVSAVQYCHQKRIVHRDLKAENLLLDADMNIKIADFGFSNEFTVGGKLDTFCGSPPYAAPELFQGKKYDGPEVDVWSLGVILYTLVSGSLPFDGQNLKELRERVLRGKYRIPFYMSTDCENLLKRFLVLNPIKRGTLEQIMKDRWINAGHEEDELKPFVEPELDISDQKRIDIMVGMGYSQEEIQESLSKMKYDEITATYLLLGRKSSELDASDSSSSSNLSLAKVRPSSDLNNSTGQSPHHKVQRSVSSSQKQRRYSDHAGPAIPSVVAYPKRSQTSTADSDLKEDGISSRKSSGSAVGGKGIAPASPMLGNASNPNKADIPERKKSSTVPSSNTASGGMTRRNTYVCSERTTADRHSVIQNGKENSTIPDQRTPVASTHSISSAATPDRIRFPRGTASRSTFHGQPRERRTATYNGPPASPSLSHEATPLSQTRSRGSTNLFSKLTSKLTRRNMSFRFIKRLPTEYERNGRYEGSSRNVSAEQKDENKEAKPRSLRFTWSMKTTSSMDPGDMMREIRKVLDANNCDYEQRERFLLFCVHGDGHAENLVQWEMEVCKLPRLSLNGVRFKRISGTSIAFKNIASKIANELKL
Protocol: as §2

[17] = 0.1 or 1 μM inhibitor, mean of triplicate

Compound	Cell migration in wound-healing assay (in words) [1]	Proliferation of MEFs (in words) [2]	Suppression of MYPT1 phosphorylation in U2OS cells (in words) [3]	Suppression of MYPT1 phosphorylation in MEFs (in words) [4]	FGF-R1 activity, percentage of DMSO control [5] [percentage]	IGF-1R activity, percentage of DMSO control [6] [percentage]	IKKε activity, percentage of DMSO control [7] [percentage]	MINK1 activity, percentage of DMSO control [8] [percentage]	MKK6 activity, percentage of DMSO control [9] [percentage]	NUAK1 activity, percentage of DMSO control [10] [percentage]	PHK activity, percentage of DMSO control [11] [percentage]	PKBα activity, percentage of DMSO control [12] [percentage]	PKCγ activity, percentage of DMSO control [13] [percentage]	VEG-FR activity, percentage of DMSO control [14] [percentage]	Inhibition of MARK1 in profiling (in words) ([15]; 1 μM)	Inhibition of MARK3 in profiling (in words) ([16]; 1 μM)	MARK1 activity, percentage of DMSO control [15, 17] [percentage]	MARK3 activity, percentage of DMSO control [16, 17] [percentage]
CCC(=O)Nc1cccc(Oc2nc(Nc3ccc(N4CCN(C)CC4)cc3OC)ncc2Cl)c1 [WZ4003]	markedly reduced cell migration	suppressed proliferation	to the same extent as shRNA-mediated NUAK1 knockdown	to the same extent as NUAK1-knockout	66	33	104	120	101	6	54	98	103	74	–	–	–	–
CN1C(=O)c2ccccc2N(C)c2nc(Nc3cnn(C4CCNCC4)c3)ncc21 [XMD-17-51]	–	–	–	–	–	–	–	–	–	–	–	–	–	–	inhibited	inhibited	–	–
Cc1nc(Nc2cnn(C3CCNCC3)c2)nc2c1N(C)C(=O)c1cc3ccccc3cc1N2C [HTH-01-015]	markedly reduced cell migration	suppressed proliferation	to the same extent as shRNA-mediated NUAK1 knockdown	to the same extent as NUAK1-knockout	105	133	85	101	87	11	104	87	107	97	–	–	106	102
